Source: US9982005B2, “Macrolides and methods of their preparation and use” (President and Fellows of Harvard College, priority 2013, dated 2018)
In brackets after ≈: the same amount, converted by molar mass. Like-named read-outs stand apart in the source and are kept apart here.

How the values were obtained:
Assay type in all cases: cell-based
E. coli strains = assay: MIC against E. coli strains (Table M7); settings: Escherichia coli, ATCC25922, E. coli ATCC 25922
Description: (§1) We have collected MIC data for a total of 50 novel macrolides that this platform has produced against over 21 unique strains of B. subtilis, E. coli, S. aureus, S. pneumoniae, and H. influenzae, including several multidrug-resistant strains, with a special focus on macrolide resistant mechanisms (vide supra). Azithromycin was included as a control macrolide. CLSI standard procedures for broth dilution MIC determination were used. […] These genotypes can be constitutive or inducible. The finding that C4-epi (unnatural) isomers of the “azaketolide” macrolide class have enhanced activities relative to C4 natural isomers is very exciting.

S. aureus strains = assay: MIC against S. aureus strains (Table M7); settings: Staphylococcus aureus
Description: as §1

S. pneumoniae strains = assay: MIC against S. pneumoniae strains (Tables M7, M8); settings: for MIC: Streptococcus pneumoniae
Description: CLSI standard procedures for broth dilution MIC determination were used. […] These genotypes can be constitutive or inducible.

E. faecalis strains = assay: MIC against E. faecalis strains (Table M8); settings: Enterococcus faecalis, E. faecalis 29212
A. baumannii strains = assay: MIC against A. baumannii strains (Table M8); settings: Acinetobacter baumannii, BAA747, A. baumannii BAA747-1
K. pneumoniae strains = assay: MIC against K. pneumoniae strains (Table M8); settings: Klebsiella pneumoniae, K. pneumoniae 10031
H. influenzae strains = assay: MIC against H. influenzae strains (Table M8); settings: Haemophilus influenzae
Description: as §1

[1] = ATCC29213, S. aureus ATCC 29213, read-out: MIC S. aureus (ATCC 29213)
[2] = S. aureus 183, read-out: MIC S. aureus (183)
[3] = S. aureus 506, read-out: MIC S. aureus (506)
[4] = S. aureus 1708, read-out: MIC S. aureus (1708)
[5] = USA300, S. aureus USA300, read-out: MIC S. aureus (USA300)
[6] = S. pneumoniae 160, read-out: MIC S. pneumonae (160)
[7] = S. pneumoniae 1509, read-out: MIC S. pneumoniae (1509)
[8] = S. pneumoniae 1533, read-out: MIC S. pneumoniae (1533)
[9] = S. pneumoniae 1537, read-out: MIC S. pneumoniae (1537)
[10] = S. pneumoniae 49619, read-out: MIC S. pneumoniae (49619)
[11] = H. influenzae 49247, read-out: MIC H. influenzae (49247)
[12] = H. influenzae 49766, read-out: MIC H. influenzae (49766)

Row | MIC (E. coli strains) [µg/mL] | MIC (S. aureus strains; [1]) [µg/mL] | MIC (S. aureus strains; [2]) [µg/mL] | MIC (S. aureus strains; [3]) [µg/mL] | MIC (S. aureus strains; [4]) [µg/mL] | MIC (S. aureus strains; [5]) [µg/mL] | MIC (S. pneumoniae strains; [6]) [µg/mL] | MIC (S. pneumoniae strains; [7]) [µg/mL] | MIC (S. pneumoniae strains; [8]) [µg/mL] | MIC (S. pneumoniae strains; [9]) [µg/mL] | MIC (S. pneumoniae strains; [10]) [µg/mL] | MIC (E. faecalis strains) [µg/mL] | MIC (A. baumannii strains) [µg/mL] | MIC (K. pneumoniae strains) [µg/mL] | MIC (H. influenzae strains; [11]) [µg/mL] | MIC (H. influenzae strains; [12]) [µg/mL] | MIC S. pneumoniae (49619) (S. pneumoniae strains; S. pneumoniae 49619) [µg/mL] | SMILES
1 | 32 (≈ 37.3 µM) | > 32 | > 32 | > 32 | > 32 | > 32 | 4 (≈ 4.66 µM) | > 32 | > 32 | > 32 | 1 (≈ 1.17 µM) | 16 (≈ 18.6 µM) | > 32 | 8 (≈ 9.32 µM) | 8 (≈ 9.32 µM) | 16 (≈ 18.6 µM) |  | CC[C@H]1OC(=O)[C@H](C)C(=O)[C@H](C)[C@@H](O[C@@H]2OC(C)CC(N(C)C)C2O)[C@](CCO)(OC)C[C@@H](C)CN[C@H](C)[C@H]2N(CCCCn3cc(-c4cccc(N)c4)nn3)C(=O)O[C@]12C (stereo partly shown) [FSM-21422]
2 | 32 (≈ 37.8 µM) | 8 (≈ 9.46 µM) | > 32 | > 32 | 4 (≈ 4.73 µM) | 8 (≈ 9.46 µM) | 0.5 (≈ 0.591 µM) | 4 (≈ 4.73 µM) | > 32 | > 32 | 0.25 (≈ 0.295 µM) | 0.5 (≈ 0.591 µM) | > 32 | 8 (≈ 9.46 µM) | 2 (≈ 2.36 µM) | 8 (≈ 9.46 µM) |  | CC[C@H]1OC(=O)[C@H](C)C(=O)[C@H](C)[C@@H](O[C@@H]2OC(C)CC(N(C)C)C2O)[C@](C)(OC)CC(C)(F)CN[C@H](C)[C@H]2N(CCCCn3cc(-c4cccc(N)c4)nn3)C(=O)O[C@]12C (stereo partly shown) [FSM-30686]
3 | 32 (≈ 37.9 µM) | > 32 | > 32 | > 32 | > 32 | 32 (≈ 37.9 µM) | 0.25 (≈ 0.296 µM) | > 32 | > 32 | > 32 | 1 (≈ 1.18 µM) | 16 (≈ 19 µM) | > 32 | 4 (≈ 4.74 µM) | 4 (≈ 4.74 µM) | 32 (≈ 37.9 µM) |  | CC[C@H]1OC(=O)[C@H](C)C(O)[C@H](C)[C@@H](O[C@@H]2OC(C)CC(N(C)C)C2O)[C@](C)(OC)C[C@@H](C)CN(C)[C@H](C)[C@H]2N(CCCCn3cc(-c4cccc(N)c4)nn3)C(=O)O[C@]12C (stereo partly shown) [FSM-21335]
4 | > 32 | > 32 | > 32 | > 32 | > 32 | > 32 | 8 (≈ 9.5 µM) | 4 (≈ 4.75 µM) | > 32 | > 32 | 0.5 (≈ 0.594 µM) | 16 (≈ 19 µM) | > 32 | 16 (≈ 19 µM) | 8 (≈ 9.5 µM) | 32 (≈ 38 µM) |  | CC[C@H]1OC(=O)C(C)C(=O)[C@H](C)[C@@H](O[C@@H]2OC(C)CC(N(C)C)C2O)[C@](C)(OC)C[C@@H](C)C(=O)N[C@H](C)[C@H]2N(CCCCn3cc(-c4cccc(N)c4)nn3)C(=O)O[C@]12C (stereo partly shown) [FSM-21344]
5 | 16 (≈ 19.7 µM) | 2 (≈ 2.46 µM) | > 32 | > 32 | 1 (≈ 1.23 µM) | 4 (≈ 4.91 µM) | 0.25 (≈ 0.307 µM) | 1 (≈ 1.23 µM) | > 32 | > 32 | 0.25 (≈ 0.307 µM) | 0.25 (≈ 0.307 µM) | 16 (≈ 19.7 µM) | 4 (≈ 4.91 µM) | 2 (≈ 2.46 µM) | 4 (≈ 4.91 µM) |  | CC[C@H]1OC(=O)[C@H](C)C(=O)[C@H](C)[C@@H](O[C@@H]2OC(C)CC(N(C)C)C2O)[C@](C)(OC)C[C@@H](C)CNC[C@H]2N(CCCCn3cc(-c4cccc(N)c4)nn3)C(=O)O[C@]12C (stereo partly shown) [FSM-11031]
6 | 4 (≈ 4.93 µM) | 1 (≈ 1.23 µM) | > 32 | > 32 | 4 (≈ 4.93 µM) | 2 (≈ 2.46 µM) | 0.125 (≈ 0.154 µM) | 4 (≈ 4.93 µM) | > 32 | > 32 | ≤ 0.0625 | 0.25 (≈ 0.308 µM) | 16 (≈ 19.7 µM) | 2 (≈ 2.46 µM) | 0.5 (≈ 0.616 µM) | 2 (≈ 2.46 µM) |  | CC[C@H]1OC(=O)[C@H](C)C(=O)[C@H](C)[C@@H](O[C@@H]2OC(C)CC(N(C)C)C2O)[C@](C)(OC)C[C@@H](C)CN[C@H](C)[C@H]2N(C/C=C/Cn3cc(-c4ccccn4)nn3)C(=O)O[C@]12C (stereo partly shown) [FSM-70153]
7 | > 32 | 8 (≈ 9.32 µM) | > 32 | > 32 | 8 (≈ 9.32 µM) | 32 (≈ 37.3 µM) | 1 (≈ 1.17 µM) | 0.5 (≈ 0.583 µM) | > 32 | > 32 | 0.125 (≈ 0.146 µM) | 2 (≈ 2.33 µM) | > 32 | 16 (≈ 18.6 µM) | 4 (≈ 4.66 µM) | 16 (≈ 18.6 µM) |  | CC[C@H]1OC(=O)[C@H](C)C(=O)[C@H](C)[C@@H](O[C@@H]2OC(C)CC(N(C)C)C2O)[C@](C)(OC)C[C@@H](C)CN[C@H](CCO)[C@H]2N(CCCCn3cc(-c4cccc(N)c4)nn3)C(=O)O[C@]12C (stereo partly shown) [FSM-11056]
8 | 16 (≈ 19 µM) | 2 (≈ 2.38 µM) | > 32 | > 32 | 4 (≈ 4.75 µM) | 2 (≈ 2.38 µM) | 0.125 (≈ 0.148 µM) | 1 (≈ 1.19 µM) | > 32 | > 32 | ≤ 0.0625 | 0.5 (≈ 0.594 µM) | 32 (≈ 38 µM) | 4 (≈ 4.75 µM) | 2 (≈ 2.38 µM) | 8 (≈ 9.5 µM) |  | CC[C@H]1OC(=O)[C@H](C)C(=O)[C@H](C)[C@@H](O[C@@H]2OC(C)CC(N(C)C)C2O)[C@](C)(OC)C[C@@H](C)CN(C)[C@H](C)[C@H]2N(CCCCn3cc(-c4cccc(N)c4)nn3)C(=O)O[C@]12C (stereo partly shown) [FSM-21339]
9 | 32 (≈ 35.4 µM) | 0.5 (≈ 0.553 µM) | > 32 | > 32 | 0.5 (≈ 0.553 µM) | 0.5 (≈ 0.553 µM) | ≤ 0.0625 | 1 (≈ 1.11 µM) | 32 (≈ 35.4 µM) | 32 (≈ 35.4 µM) | ≤ 0.0625 | 0.25 (≈ 0.276 µM) | 32 (≈ 35.4 µM) | 8 (≈ 8.85 µM) | 2 (≈ 2.21 µM) | 8 (≈ 8.85 µM) |  | CC[C@H]1OC(=O)[C@H](C)C(=O)[C@H](C)[C@@H](O[C@@H]2OC(C)CC(N(C)C)C2O)[C@](C)(OC)C[C@@H](C)CN[C@H](Cc2ccccc2)[C@H]2N(CCCCn3cc(-c4cccc(N)c4)nn3)C(=O)O[C@]12C (stereo partly shown) [FSM-60353]
10 | > 32 | 2 (≈ 2.03 µM) | > 32 | > 32 | 2 (≈ 2.03 µM) | 2 (≈ 2.03 µM) | 0.5 (≈ 0.509 µM) | 4 (≈ 4.07 µM) | 32 (≈ 32.6 µM) | 32 (≈ 32.6 µM) | 0.5 (≈ 0.509 µM) | 2 (≈ 2.03 µM) | > 32 | > 32 | 8 (≈ 8.14 µM) | 32 (≈ 32.6 µM) |  | CC[C@H]1OC(=O)[C@H](C)C(=O)[C@H](C)[C@@H](O[C@@H]2OC(C)CC(N(C)C)C2O)[C@](C)(OC)C[C@@H](C)CN[C@H](Cc2cccc(Br)c2)[C@H]2N(CCCCn3cc(-c4cccc(N)c4)nn3)C(=O)O[C@]12C (stereo partly shown) [FSM-60415]
11 | > 32 | > 32 | > 32 | > 32 | > 32 | > 32 | 16 (≈ 19.7 µM) | 16 (≈ 19.7 µM) | > 32 | > 32 |  | 32 (≈ 39.3 µM) | > 32 | > 32 | 16 (≈ 19.7 µM) | > 32 | 8 (≈ 9.83 µM) | CC[C@H]1OC(=O)[C@H](C)C(=O)[C@H](C)[C@@H](O[C@@H]2OC(C)CC(N(C)C)C2O)[C@](C)(OC)CC(C)N[C@H](C)[C@H]2N(CCCCn3cc(-c4cccc(N)c4)nn3)C(=O)O[C@]12C (single isomer, unassigned) [FSM-30689]
12 | > 32 | > 32 | > 32 | > 32 | > 32 | > 32 | 8 (≈ 8.62 µM) | > 32 | > 32 | > 32 | > 32 | > 32 | > 32 | > 32 | > 32 | > 32 |  | CC[C@H]1OC(=O)[C@H](CC(=O)OC(C)(C)C)C(=O)[C@H](C)[C@@H](O[C@@H]2OC(C)CC(N(C)C)C2O)[C@](C)(OC)C[C@@H](C)CN[C@H](C)[C@H]2N(CCCCn3cc(-c4cccc(N)c4)nn3)C(=O)O[C@]12C (stereo partly shown) [FSM-56178]
13 | > 32 | > 32 | > 32 | > 32 | > 32 | > 32 | 2 (≈ 2.34 µM) | > 32 | > 32 | > 32 | 16 (≈ 18.8 µM) | 8 (≈ 9.38 µM) | > 32 | 8 (≈ 9.38 µM) | 8 (≈ 9.38 µM) | 32 (≈ 37.5 µM) |  | CC[C@H]1OC(=O)[C@H](CC#N)C(=O)[C@H](C)[C@@H](O[C@@H]2OC(C)CC(N(C)C)C2O)[C@](C)(OC)C[C@@H](C)CN[C@H](C)[C@H]2N(CCCCn3cc(-c4cccc(N)c4)nn3)C(=O)O[C@]12C (stereo partly shown) [FSM-56160]
